Test results published in PMC11308363, “Bioinformatic, Enzymatic, and Structural Characterization of Trichuris suis Hexosaminidase HEX-2” (Biochemistry, 2024).

Tests used:
[1] = target: T1, T. suis HEX-2 (Trichuris suis, UniProt A0A085NCI8); assay: pNP-β-GalNAc hydrolysis assay with purified enzyme, Ki fitted in Prism; assay type: biochemical
T1 construct: gene M514_07548; recombinant C-terminally His-tagged, secreted from Pichia; residues 85–620 (long) or 135–620 (short) of the predicted protein

[2] = substrate: CC(=O)N[C@H]1[C@H](Oc2ccc([N+](=O)[O-])cc2)O[C@H](CO)[C@H](O)[C@@H]1O; assay: Michaelis–Menten kinetics, absorbance assay with purified enzyme (apparent Km); assay type: biochemical, Trichuris suis

Row | Molecule | Ki [1] [nM] | Km [2] [µM]
1 | GalNAc-isofagomine | 600 | –
2 | T. suis HEX-2 (Trichuris suis) (protein, recombinant C-terminally His-tagged, secreted from Pichia; residues 85–620 (long) or 135–620 (short) of the predicted protein) SNVFIPKRRIVHLDLKGAAPKPQHFRAFFEYFVRIGATGILIEWEDMFPYEGRLSDLRNGDAYSADDVRMILSTADQLRLEVIPLVQTIGHLEWLLKTHKFYSFRENPRNPQSVCVSNAEAVDLVLHLVDQVMAFHKDYGQFVHIGADEVYQYGECSRCVARMNKENLRREDLLLRHIVNVSKHVKTKYGKNVLMWHDMIANIDASLAEKYDLKNLVEPVLWNYAEDLEAFLPMGIWETFSAMVPYMWGSSAFKGADSPTRYHSNVKHYLENHISWIKQMSTASEKFREFRGLIFTGWQRYDHFAVLCEFLPIGIPSLTVNMLTIRNGRFDASVNDQAISIMQCVTGSDVKGDLYGCRFPGSDIYHHVQLLHEKKGEIEKLLLQQSVQGWLSNIAIDYNMSSPWYMNLIVPDLMTYKNQMIELSLNIRQAMLEMFYENAVDEFLFTYVDPVINHLQRLLDRATAIQRRDEFPVRPFPIKRTIDTTR | – | 900
